Measured values reported in BindingDB's records for doi:10.1124/jpet.106.101428 (Eli Lilly, 2006).

Key:
[1] = target: Glutamate receptor ionotropic, kainate 3 (Homo sapiens, UniProt Q13003)
Glutamate receptor 4 = Glutamate receptor 4 (Homo sapiens, UniProt P48058)
[2] = target: Glutamate receptor ionotropic, kainate 2 (Homo sapiens, UniProt Q13002)
[3] = target: T1, Glutamate receptor ionotropic, kainate 5 (Homo sapiens, UniProt Q16478)
T1 sequence (Q16478 whole entry): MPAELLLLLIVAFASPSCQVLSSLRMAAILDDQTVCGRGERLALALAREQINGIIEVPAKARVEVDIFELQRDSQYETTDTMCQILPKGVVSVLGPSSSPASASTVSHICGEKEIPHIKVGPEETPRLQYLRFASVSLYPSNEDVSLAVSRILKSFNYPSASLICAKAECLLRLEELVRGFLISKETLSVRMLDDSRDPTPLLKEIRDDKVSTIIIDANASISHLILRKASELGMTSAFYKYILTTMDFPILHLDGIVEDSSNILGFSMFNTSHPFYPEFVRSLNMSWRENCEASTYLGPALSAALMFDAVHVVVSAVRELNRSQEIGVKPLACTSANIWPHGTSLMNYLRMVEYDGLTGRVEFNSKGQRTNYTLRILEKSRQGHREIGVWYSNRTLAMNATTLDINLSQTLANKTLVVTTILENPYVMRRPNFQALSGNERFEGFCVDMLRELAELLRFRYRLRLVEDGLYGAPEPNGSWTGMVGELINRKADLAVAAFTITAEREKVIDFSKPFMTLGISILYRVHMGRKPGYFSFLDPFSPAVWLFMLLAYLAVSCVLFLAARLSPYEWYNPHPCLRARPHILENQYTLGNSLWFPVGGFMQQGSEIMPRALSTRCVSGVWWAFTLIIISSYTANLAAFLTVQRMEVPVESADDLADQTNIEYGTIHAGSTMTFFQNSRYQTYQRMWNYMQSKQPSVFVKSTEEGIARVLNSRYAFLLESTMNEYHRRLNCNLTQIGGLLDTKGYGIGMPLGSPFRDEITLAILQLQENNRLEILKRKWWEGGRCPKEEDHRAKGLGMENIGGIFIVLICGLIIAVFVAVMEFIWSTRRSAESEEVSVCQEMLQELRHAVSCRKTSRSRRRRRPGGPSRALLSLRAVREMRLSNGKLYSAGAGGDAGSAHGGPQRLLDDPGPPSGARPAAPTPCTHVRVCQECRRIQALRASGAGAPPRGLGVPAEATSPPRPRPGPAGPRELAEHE

Glutamate receptor 1 = Glutamate receptor 1 (Homo sapiens, UniProt P42261)
Chain of Glutamate receptor 1 (P42261 whole entry): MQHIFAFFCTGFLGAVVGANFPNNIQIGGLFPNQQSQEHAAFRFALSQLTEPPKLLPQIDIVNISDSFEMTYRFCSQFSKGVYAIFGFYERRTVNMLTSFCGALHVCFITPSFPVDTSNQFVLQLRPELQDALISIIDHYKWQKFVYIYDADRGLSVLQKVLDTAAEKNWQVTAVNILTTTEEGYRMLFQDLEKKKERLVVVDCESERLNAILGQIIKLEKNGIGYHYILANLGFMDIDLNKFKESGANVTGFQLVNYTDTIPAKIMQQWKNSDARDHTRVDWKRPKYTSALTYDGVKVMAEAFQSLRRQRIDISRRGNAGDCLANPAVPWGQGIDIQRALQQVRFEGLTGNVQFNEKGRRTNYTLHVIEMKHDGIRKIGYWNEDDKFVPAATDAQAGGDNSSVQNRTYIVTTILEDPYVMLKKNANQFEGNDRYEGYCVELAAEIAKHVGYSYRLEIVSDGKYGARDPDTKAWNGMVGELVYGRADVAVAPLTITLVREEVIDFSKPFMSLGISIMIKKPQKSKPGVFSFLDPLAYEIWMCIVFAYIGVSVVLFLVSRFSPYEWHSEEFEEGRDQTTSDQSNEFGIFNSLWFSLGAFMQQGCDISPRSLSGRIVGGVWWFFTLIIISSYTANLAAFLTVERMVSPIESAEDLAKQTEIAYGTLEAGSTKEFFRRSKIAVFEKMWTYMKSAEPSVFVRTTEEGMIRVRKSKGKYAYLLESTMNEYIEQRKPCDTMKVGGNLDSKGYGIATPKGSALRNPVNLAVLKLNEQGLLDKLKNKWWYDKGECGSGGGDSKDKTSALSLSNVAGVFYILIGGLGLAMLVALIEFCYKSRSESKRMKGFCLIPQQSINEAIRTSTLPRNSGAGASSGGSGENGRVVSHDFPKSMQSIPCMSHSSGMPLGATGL

Glutamate receptor 2 = Glutamate receptor 2 (Homo sapiens, UniProt P42262)
Chain of Glutamate receptor 2 (P42262 whole entry): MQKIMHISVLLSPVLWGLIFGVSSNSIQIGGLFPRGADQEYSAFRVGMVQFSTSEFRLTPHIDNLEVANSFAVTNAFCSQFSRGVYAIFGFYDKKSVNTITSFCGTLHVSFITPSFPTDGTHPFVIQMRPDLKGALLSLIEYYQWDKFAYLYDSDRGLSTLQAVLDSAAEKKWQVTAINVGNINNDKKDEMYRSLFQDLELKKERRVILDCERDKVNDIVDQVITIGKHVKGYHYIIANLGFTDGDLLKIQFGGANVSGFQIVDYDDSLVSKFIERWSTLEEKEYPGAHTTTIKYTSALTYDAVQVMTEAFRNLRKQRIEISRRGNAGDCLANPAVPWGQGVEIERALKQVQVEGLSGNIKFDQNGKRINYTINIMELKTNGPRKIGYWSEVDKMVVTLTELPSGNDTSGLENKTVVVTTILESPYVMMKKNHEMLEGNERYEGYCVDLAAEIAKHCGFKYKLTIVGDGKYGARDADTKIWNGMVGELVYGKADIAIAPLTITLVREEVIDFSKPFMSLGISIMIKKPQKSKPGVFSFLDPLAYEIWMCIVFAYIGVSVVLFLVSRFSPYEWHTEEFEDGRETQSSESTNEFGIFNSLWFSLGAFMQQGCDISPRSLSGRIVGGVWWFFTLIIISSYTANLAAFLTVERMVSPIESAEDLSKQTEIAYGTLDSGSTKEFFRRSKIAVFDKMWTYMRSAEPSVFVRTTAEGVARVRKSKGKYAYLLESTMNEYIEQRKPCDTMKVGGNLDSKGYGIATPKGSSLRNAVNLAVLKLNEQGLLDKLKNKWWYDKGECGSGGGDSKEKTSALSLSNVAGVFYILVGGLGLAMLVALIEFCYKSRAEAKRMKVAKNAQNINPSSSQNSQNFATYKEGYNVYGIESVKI

Chain of Glutamate receptor 4 (P48058 whole entry): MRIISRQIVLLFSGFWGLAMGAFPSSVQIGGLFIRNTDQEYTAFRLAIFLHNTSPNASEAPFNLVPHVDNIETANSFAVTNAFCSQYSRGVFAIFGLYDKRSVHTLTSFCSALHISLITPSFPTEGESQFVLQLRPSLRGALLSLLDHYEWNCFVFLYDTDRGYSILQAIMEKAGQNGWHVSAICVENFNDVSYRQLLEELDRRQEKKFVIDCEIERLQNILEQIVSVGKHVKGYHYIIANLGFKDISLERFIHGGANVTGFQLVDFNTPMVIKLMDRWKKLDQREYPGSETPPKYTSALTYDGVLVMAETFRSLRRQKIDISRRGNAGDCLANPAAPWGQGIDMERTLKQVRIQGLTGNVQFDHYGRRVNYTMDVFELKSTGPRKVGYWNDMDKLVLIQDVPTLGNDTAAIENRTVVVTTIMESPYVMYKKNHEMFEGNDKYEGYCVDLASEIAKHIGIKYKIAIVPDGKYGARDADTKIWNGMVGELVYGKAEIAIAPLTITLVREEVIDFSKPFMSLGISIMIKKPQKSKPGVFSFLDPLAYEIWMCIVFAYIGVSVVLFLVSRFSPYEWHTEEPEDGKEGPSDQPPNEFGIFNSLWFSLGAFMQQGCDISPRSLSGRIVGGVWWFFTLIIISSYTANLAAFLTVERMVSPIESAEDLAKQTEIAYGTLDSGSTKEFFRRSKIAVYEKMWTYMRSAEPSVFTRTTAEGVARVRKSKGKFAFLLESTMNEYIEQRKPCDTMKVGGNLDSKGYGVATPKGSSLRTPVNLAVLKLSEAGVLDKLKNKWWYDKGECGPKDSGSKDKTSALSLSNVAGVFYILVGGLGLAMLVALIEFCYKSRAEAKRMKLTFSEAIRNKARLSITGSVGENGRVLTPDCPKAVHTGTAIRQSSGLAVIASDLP
Chain of Glutamate receptor ionotropic, kainate 2 (Q13002 whole entry): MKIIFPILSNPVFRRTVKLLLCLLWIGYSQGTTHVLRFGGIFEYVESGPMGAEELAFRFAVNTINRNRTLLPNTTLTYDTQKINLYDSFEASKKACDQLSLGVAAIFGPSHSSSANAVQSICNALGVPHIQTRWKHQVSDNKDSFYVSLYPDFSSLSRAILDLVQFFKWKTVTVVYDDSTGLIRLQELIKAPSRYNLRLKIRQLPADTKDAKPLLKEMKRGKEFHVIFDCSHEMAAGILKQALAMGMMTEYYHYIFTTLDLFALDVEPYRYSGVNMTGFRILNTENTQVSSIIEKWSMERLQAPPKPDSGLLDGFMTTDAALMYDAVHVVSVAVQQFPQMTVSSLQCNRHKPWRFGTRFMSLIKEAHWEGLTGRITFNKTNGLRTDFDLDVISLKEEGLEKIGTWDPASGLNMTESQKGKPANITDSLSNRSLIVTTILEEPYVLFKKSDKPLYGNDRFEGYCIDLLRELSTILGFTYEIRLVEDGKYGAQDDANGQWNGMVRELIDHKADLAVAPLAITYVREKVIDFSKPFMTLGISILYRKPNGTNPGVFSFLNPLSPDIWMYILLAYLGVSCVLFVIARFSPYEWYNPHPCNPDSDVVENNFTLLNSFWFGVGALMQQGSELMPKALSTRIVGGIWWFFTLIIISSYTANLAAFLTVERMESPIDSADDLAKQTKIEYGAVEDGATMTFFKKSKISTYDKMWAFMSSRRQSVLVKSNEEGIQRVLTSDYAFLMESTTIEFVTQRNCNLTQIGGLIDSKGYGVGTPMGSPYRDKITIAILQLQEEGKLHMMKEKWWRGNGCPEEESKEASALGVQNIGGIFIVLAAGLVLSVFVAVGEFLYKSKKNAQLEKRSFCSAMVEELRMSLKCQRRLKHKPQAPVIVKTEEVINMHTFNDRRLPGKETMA
Chain of Glutamate receptor ionotropic, kainate 3 (Q13003 whole entry): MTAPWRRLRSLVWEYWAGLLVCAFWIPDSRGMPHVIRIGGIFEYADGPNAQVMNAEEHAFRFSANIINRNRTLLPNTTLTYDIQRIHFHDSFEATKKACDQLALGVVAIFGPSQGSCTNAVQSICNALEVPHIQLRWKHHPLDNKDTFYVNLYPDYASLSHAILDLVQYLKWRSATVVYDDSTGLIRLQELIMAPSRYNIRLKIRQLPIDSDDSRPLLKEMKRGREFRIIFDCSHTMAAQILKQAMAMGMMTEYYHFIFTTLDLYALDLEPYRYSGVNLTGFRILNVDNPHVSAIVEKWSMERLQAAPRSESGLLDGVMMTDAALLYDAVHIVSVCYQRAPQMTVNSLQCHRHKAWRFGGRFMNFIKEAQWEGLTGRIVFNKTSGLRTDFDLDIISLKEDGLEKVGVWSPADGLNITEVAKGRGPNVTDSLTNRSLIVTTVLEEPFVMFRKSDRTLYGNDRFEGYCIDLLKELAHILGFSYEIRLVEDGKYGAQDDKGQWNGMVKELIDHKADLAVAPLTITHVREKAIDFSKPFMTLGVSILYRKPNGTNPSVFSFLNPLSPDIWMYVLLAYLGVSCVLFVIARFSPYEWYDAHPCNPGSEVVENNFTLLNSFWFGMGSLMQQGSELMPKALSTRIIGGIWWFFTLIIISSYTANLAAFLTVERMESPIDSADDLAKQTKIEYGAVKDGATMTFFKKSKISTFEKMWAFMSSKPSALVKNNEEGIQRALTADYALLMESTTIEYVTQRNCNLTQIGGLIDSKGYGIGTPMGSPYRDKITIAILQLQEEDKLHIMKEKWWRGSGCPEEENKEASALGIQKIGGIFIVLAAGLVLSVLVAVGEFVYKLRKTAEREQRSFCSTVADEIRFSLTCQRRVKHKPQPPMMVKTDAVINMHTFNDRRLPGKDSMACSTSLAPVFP

| Compound | Ki [1] [µM] | Ki (Glutamate receptor 4) [µM] | Ki [2] [µM] | Ki [3] [µM] | Ki (Glutamate receptor 1) [µM] | Ki (Glutamate receptor 2) [µM] |
| --- | --- | --- | --- | --- | --- | --- |
| O=C(O)[C@@H]1C[C@H]2C[C@@H](CCc3nn[nH]n3)CC[C@H]2CN1 | > 10 | > 10 | > 10 | 4.2 | – | – |
| O=C(O)c1ccc(C[C@H]2CC[C@H]3CN[C@H](C(=O)O)C[C@H]3C2)cc1 [LY 382884] | > 10 | > 10 | > 10 | 4 | > 10 | > 10 |
| O=C(O)[C@@H]1C[C@H]2C[C@@H](Nc3ccccc3-c3nnn[nH]3)CC[C@H]2CN1 [LY 457691] | – | – | – | 1.55 | – | – |
| O=C(O)[C@@H]1C[C@H]2CC(COCc3nnn[nH]3)CC[C@H]2CN1 (some centres undefined) [LY-294486] | – | – | – | 3.06 | – | > 10 |
| O=C(O)[C@@H]1C[C@H]2C[C@@H](CS(=O)(=O)c3nnc[nH]3)CC[C@H]2CN1 [LY-302679] | – | – | – | 3.41 | – | – |
| O=C(O)[C@@H]1C[C@H]2C[C@@H](Oc3ccccc3-c3nnn[nH]3)CC[C@H]2CN1 [LY-458545] | – | – | – | 1.69 | – | – |
| O=C(O)C1CC(F)(F)CN1C[C@H]1CC[C@H]2CN[C@H](C(=O)O)C[C@H]2C1 (some centres undefined) [LY-466195] | – | > 10 | > 10 | 0.05 | > 10 | > 10 |
| CCC(C)OC(=O)[C@@H]1C[C@H]2C[C@@H](Oc3ccccc3-c3nnn[nH]3)CC[C@H]2CN1 (some centres undefined) [LY-467711] | – | – | – | 7.4 | – | > 10 |
| CCC(CC)COC(=O)[C@@H]1C[C@H]2C[C@@H](Nc3ccccc3-c3nnn[nH]3)CC[C@H]2CN1 [LY-525327] | – | – | – | > 10 | – | > 10 |
